Data set [1] has as its target T1, BAX (Homo sapiens, UniProt Q07812).
T1 construct: Human full-length (1-192) wild-type BAX (Q07812); made in house; host or cells: E. coli BL21 (DE3) CodonPlus (DE3)-RIPL
Put plainly: Competitive fluorescence polarization binding assay (FPA), BAX / FITC-BIM-SAHB. The settings on record: BAX 150 nM, FITC-BIM-SAHB 25 nM; read-out: IC50, competition of FITC-BIM-SAHB by FPA. As for the experimental part: Fluorescence polarization assays (FPA) were performed as previously described (Gavathiotis, E., et al. Nat Chem Biol 8, 639-645 (2012)). Direct binding isotherms of BIM-SAHB were measured by incubated FITC-BIM-SAHB (25 nM) with serial dilutions of full-length BAX alone or in the presence of 0.5 or 1 µM EO. Competition binding assays were performed by titrating ED into BAX (150 nM) and FITC-BIM-SAHB (25 nM). Measurements were taken at 10-minute intervals over 60 minutes on a TECAN F200 PRO microplate reader. Reported curves represent 10-minute time point. KD values and IC50 were determined using GraphPad Prism nonlinear fit four-parameter agonist or antagonist versus response with restraints for 100% and 0% bound calculated by the mP of saturated BAX + FITC-BIM-SAHB and FITC-BIM-SAHB alone.
To test this hypothesis, a competitive fluorescence polarization assay (FPA) (Gavathiotis, E., et al. Nat Chem Biol 8, 639-645 (2012)) based on the interaction between BAX and fluorescently-labeled stapled BIM-BH3 peptide (FITC-BIM-SAHB) was used (Gavathiotis, E., et al. Nature 455, 1076-1081 (2008)). […] The IC50 and KD are consistent with a competitive binding mechanism of EO displacing FITC-BIM-SAHB from the N-terminal trigger site of BAX.

For data set [2], the target named is T1, BAX. Put plainly: Liposomal permeabilization (ANTS/DPX release) assay. It is filed as biochemical. The note with it: 50 nM BAX and 5 nM tBID; compared with EO. Here is the method: Lipids (Avanti Polar Lipids) at the following ratio, phosphatidylcholine 48%, phosphatidylinositol 10%, dioleoyl phosphatidylserine 10%, phosphatidylethanolamine, 28%, and tetraoleoyl cardiolipin 4%, were mixed in a total of 1 mg, dried and resuspended in 10 mM HEPES, pH 7, 200 mM KCI, and 5 mM MgCl2 with 12.5 mM 8-aminonaphthalene-1,3,6-trisulfonic acid (ANTS) dye and 45 mM p-xylene-bis-pyridinium bromide (DPX) quencher (Molecular Probes) using a water bath sonicator. Liposomes were formed by extrusion of the suspension using Avanti Mini-Extruder (Cat # 610000) with polycarbonate membranes of 0.1 µm pore size (Avanti Polar Lipids). ANTS/DPX encapsulated liposomes were purified from non-encapsulated ANTS/DPX by gel filtration of a 10 mL CL2B-Sepharose (GE Healthcare Life Sciences) gravity-flow column. BAX (50-250 nM) was combined with tBID, BIM, and EO at the indicated concentrations to a volume of 90 µL. Reactions were initiated by the addition of […] of the encapsulated ANTS/DPX liposome stock. ANTS/DPX release was quantified based on the increase in fluorescence intensity that occurs when the ANTS fluorophore is separated from the DPX quencher upon release from the liposomes into solution. Fluorescence (λex = 355 nm and λem = 520 nm) was measured at 1 minute intervals at room temperature (22-25° C.) indicated using a Tecan Infinite M1000 plate reader. In the case of heat activation, reactions were set up as described in the absence of tBID or BIM, and experiments were recorded at 42° C. The percentage release of ANTS/DPX at any given time point was calculated as percentage release=((F-F0)/(F100-F0))(100), where F0 and F100 are baseline and maximal fluorescence, respectively. Triton X-100 (1%) was used to determine the maximum amount of liposomal release per assay and was set to 100%.
Next, EO’s capacity to modulate BAX activity was evaluated using liposomal release assays. […] Instead, EO was able to inhibit both tBID- and BIM BH3-mediated BAX activation (FIGS. 1E, 1F, and 1G). Inhibition of tBID-mediated BAX activation by EO was inversely proportional to the concentration of the tBID activator, consistent with competitive inhibition of BH3-activator binding.

The test system of data set [3] is platelets of C57BL/6J mice. Put plainly: In vivo mouse platelet experiments. The settings on record: ABT-263 25 mg/kg single dose, oral gavage, within 24 hr. Here is the method: Wild type black mice strain C57BL/6J were treated with vehicle, ABT-263 (25 mg/kg, single dose), EO (100 mg/kg, then 3 hrs later 50 mg/kg), or a combination of ABT-263 and EO. EO was formulated in dH2O, and ABT-263 was formulated in 10% ethanol, 30% polyethylene glycol 400, and 60% Phosal 50 PG. Both ABT-263 and EO were administered by oral gavage. Blood samples were collected by submandibular bleed before treatment and 24 hours following treatment, and CBC was acquired. Percentage platelet protection was calculated as follows: % Platelet Protection = (100)(Px - mPABT)/(mPv - mPABT) where Px is the platelet count for a given mouse, mPv is the mean vehicle treated platelet count, and mPABT is the mean ABT-263 treated platelet count. Statistical analysis was performed using one-way ANOVA with select multiple comparisons as shown.
Finally, whether EO can rescue thrombocytopenia induced by the activity of navitoclax was evaluated in mice. The use of navitoclax is limited by on-target toxicity triggering BAK/BAX-mediated platelet apoptosis (Zhang, H. et al. Cell Death Differ 14, 943-951 (2007)). […] This EO effect is distinct from its capacity to stimulate platelet production by differentiation of the megakaryocyte precursors and progenitor cells, which requires 5 days to begin (Erickson-Miller, C. L. et al. Stem Cells 27, 424-430 (2009); Jenkins, J. M. et al. Blood 109, 4739-4741 (2007)).

T1 sequence (Q07812 whole entry): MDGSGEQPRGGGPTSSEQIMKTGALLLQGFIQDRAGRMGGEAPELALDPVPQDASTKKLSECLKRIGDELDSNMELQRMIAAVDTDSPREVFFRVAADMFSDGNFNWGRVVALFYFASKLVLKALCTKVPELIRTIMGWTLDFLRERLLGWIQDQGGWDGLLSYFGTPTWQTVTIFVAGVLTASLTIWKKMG

As usually defined, the IC50 is the concentration needed to halve the response being measured. For `COC(=O)c1cccc(-c2cccc(NN=C3C(=O)N(c4ccc(C)c(C)c4)N=C3C)c2O)c1` [EO-Methyl Ester, eltrombopag methyl ester], the IC50 at BAX [1] was > 5 µM. Besides, the “inhibition of BAX in liposomal release assays” value against BAX [2] is listed as “significantly diminished inhibition”.

Take `CC1(C)CCC(c2ccc(Cl)cc2)=C(CN2CCN(c3ccc(C(=O)NS(=O)(=O)c4ccc(N[C@H](CCN5CCOCC5)CSc5ccccc5)c(S(=O)(=O)C(F)(F)F)c4)cc3)CC2)C1` [navitoclax]: in data set [3], the platelet loss result is recorded as “significant platelet loss”.

The record behind these values is patent US20230270721A1, “INHIBITION OF BAX-MEDIATED CELL DEATH BY ELTROMBOPAG” (Albert Einstein College of Medicine, priority 2020, published 2023).
